Results on 27 compounds are retold here after patent US11691972B2, “Compounds for targeted degradation of BRD9” (C4 Therapeutics, Inc., priority 2020, dated 2023).

The structures appear in SMILES notation. A value given as a limit tells only on which side of the number the result lay.

For orientation: DC50 means the midpoint of the concentration-degradation curve.

The target in one test is T1, BRD9 (Homo sapiens, UniProt Q9H8M2).
T1 sequence (Q9H8M2 1-597): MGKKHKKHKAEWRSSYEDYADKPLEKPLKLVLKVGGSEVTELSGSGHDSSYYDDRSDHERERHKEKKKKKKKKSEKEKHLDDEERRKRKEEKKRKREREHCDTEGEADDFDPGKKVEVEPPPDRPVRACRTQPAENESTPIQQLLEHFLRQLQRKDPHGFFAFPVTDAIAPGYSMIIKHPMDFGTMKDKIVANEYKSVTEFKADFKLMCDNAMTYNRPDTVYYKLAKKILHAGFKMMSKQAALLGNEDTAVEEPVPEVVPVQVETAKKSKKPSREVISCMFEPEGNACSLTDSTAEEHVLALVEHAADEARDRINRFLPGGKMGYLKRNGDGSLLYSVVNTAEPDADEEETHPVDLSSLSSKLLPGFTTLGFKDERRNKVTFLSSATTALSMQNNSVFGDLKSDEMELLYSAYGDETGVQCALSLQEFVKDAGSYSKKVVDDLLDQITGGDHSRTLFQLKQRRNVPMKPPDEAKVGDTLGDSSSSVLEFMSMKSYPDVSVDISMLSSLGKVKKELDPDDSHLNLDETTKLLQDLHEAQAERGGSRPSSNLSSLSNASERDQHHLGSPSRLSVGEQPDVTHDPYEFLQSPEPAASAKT
As to the kind of experiment: HiBiT BRD9 degradation assay in 293T.166 (BRD9-HiBiT) cells. It counts as cell-based. Also noted: endogenously expressing BRD9 with HiBiT fusion tag via CRISPR; host or cells: 293T.166 (BRD9-HiBiT), also expressing LgBiT ectopically. The settings on record: Table 1; 293T.166 cells, 2.0 hours; class symbols; read-out: HiBiT-Degradation 293T.166 BRD9 2.0 hours (DC50). In a few lines: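 293T.166 cells carrying endogenous CRISPR BRD9-HiBiT and expressing LgBiT treated 2 h at 37° C. with compounds, 11-point half-log titration from 10 μM in duplicate. Remaining BRD9 measured as lytic HiBiT luminescence; untreated cells as negative control, no-reagent wells as positive control.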
Turning to `COc1cc(-c2cn(C)c(=O)c3[nH]ncc23)cc(OC)c1CN1CCN(C(=O)CN2CCC(c3ccc(C4CCC(=O)NC4=O)cc3)CC2)CC1` (stereo not drawn) [Compound 16], the DC50 was less than 100 nM.

For `COc1cc(-c2cn(C)c(=O)c3cnccc23)cc(F)c1CC1CCN(C(=O)CC2CCN(c3ccc(NC4CCC(=O)NC4=O)cc3F)CC2)CC1` (stereo not drawn) [Compound 158, 3-[3-fluoro-4-[4-[2-[4-[[2-fluoro-6-methoxy-4-(2-methyl-1-oxo-2,7-naphthyridin-4-yl)phenyl]methyl]-1-piperidyl]-2-oxo-ethyl]-1-piperidyl]anilino]piperidine-2,6-dione], the 50% degradation concentration (DC50) is less than 100 nM.

With `CN(C(=O)N1CCC(c2ccc(NC3CCC(=O)NC3=O)cc2)CC1)C1CCN(Cc2ccc(-c3cn(C)c(=O)c4ccccc34)cc2OC(F)(F)F)CC1` (stereo not drawn) [Compound 113], the DC50 was less than 100 nM.

On to `COc1cc(-c2cn(C)c(=O)c3cnccc23)cc(F)c1CN1CCC(C2CCN(c3ccc(NC4CCC(=O)NC4=O)cc3C(F)(F)F)CC2)CC1` (stereo not drawn) [Compound 87], for which the DC50 is less than 100 nM.

Regarding `CN(C(=O)N1CCC(c2ccc(NC3CCC(=O)NC3=O)cc2)CC1)C1CCN(Cc2ccc(-c3cn(C)c(=O)c4cc(F)ccc34)cc2OC(F)(F)F)CC1` (stereo not drawn) [Compound 114], the DC50 was less than 100 nM.

Take `COc1cc(-c2cn(C)c(=O)c3[nH]ncc23)cc(Cl)c1CN1CCN(C(=O)CN2CCC(c3ccc(NC4CCC(=O)NC4=O)cc3)CC2)CC1` (stereo not drawn) [Compound 12]: the DC50 was less than 100 nM.

In the case of `COc1cc(-c2cn(C)c(=O)c3[nH]ncc23)cc(OC)c1CNc1ccc(CC2CCN(c3ccc(NC4CCC(=O)NC4=O)cc3)CC2)cc1` (stereo not drawn) [Compound 205, 3-[4-[4-[[4-[[2,6-dimethoxy-4-(6-methyl-7-oxo-1H-pyrazolo[3,4-c]pyridin-4-yl)phenyl]methylamino]phenyl]methyl]-1-piperidyl]anilino]piperidine-2,6-dione], the DC50 is less than 100 nM.

Regarding `COc1cc(-c2cn(C)c(=O)c3[nH]ncc23)cc(OC)c1CN1CCc2c(cccc2CN2CCC(c3ccc(NC4CCC(=O)NC4=O)cc3)C(F)(F)C2)C1` (stereo not drawn) [Compound 95, 3-[4-[1-[[2-[[2,6-dimethoxy-4-(6-methyl-7-oxo-1H-pyrazolo[3,4-c]pyridin-4-yl)phenyl]methyl]-3,4-dihydro-1H-isoquinolin-5-yl]methyl]-3,3-difluoro-4-piperidyl]anilino]piperidine-2,6-dione], the DC50 is less than 100 nM.

As to `COc1cc(-c2cn(C)c(=O)c3ccccc23)cc(OC)c1CN1CCN(C(=O)CC2CCN(c3ccc(NC4CCC(=O)NC4=O)cc3C(F)(F)F)CC2)CC1` (stereo not drawn) [Compound 62], the DC50 was less than 100 nM.

`COc1cc(-c2cn(C)c(=O)c3cnccc23)cc(Cl)c1CN1CCc2c(CC3CCN(c4ccc(NC5CCC(=O)NC5=O)cc4F)CC3)cccc2C1` (stereo not drawn) [Compound 107]: the DC50 is less than 100 nM.

Consider `COc1cc(-c2cn(C)c(=O)c3[nH]ncc23)cc(OC)c1CN1CCN(C(=O)Cc2ccc(NC3CCC(=O)NC3=O)cc2F)CC1` (stereo not drawn) [Compound 41, 3-[4-[2-[4-[[2,6-dimethoxy-4-(6-methyl-7-oxo-1H-pyrazolo[3,4-c]pyridin-4-yl)phenyl]methyl]piperazin-1-yl]-2-oxo-ethyl]-3-fluoro-anilino]piperidine-2,6-dione], for which the DC50 was less than 100 nM.

Take `COc1cc(-c2cn(C)c(=O)c(C)c2C)cc(OC)c1CN1CCC(N2CCN(c3ccc(NC4CCC(=O)NC4=O)cc3F)CC2)C(F)(F)C1` (single isomer, unassigned) [Compound 174, 3-[4-[4-[1-[[2,6-dimethoxy-4-(1,4,5-trimethyl-6-oxo-3-pyridyl)phenyl]methyl]-3,3-difluoro-4-piperidyl]piperazin-1-yl]-3-fluoro-anilino]piperidine-2,6-dione]: the DC50 is less than 100 nM.

Consider `COc1cc(-c2cn(C)c(=O)c3[nH]ncc23)cc(F)c1C=C1CCN(CC(=O)N2CCC(c3ccc(NC4CCC(=O)NC4=O)cc3)CC2)CC1` (stereo not drawn) [Compound 157, 3-[4-[1-[2-[4-[[2-fluoro-6-methoxy-4-(6-methyl-7-oxo-1H-pyrazolo[3,4-c]pyridin-4-yl)phenyl]methylene]-1-piperidyl]acetyl]-4-piperidyl]anilino]piperidine-2,6-dione], for which the DC50 is less than 100 nM.

With `COc1cc(-c2cn(C)c(=O)c(C)c2C)cc(Cl)c1CN1CCC(C2CCN(c3ccc(NC4CCC(=O)NC4=O)cc3C(F)(F)F)CC2)CC1` (stereo not drawn) [Compound 85], the DC50 is less than 100 nM.

Take `COc1cc(-c2cn(C)c(=O)c(C)c2C)cc(OC)c1CN1CCC(N2CCN(c3ccc(NC4CCC(=O)NC4=O)nc3)CC2)C(F)(F)C1` (stereo not drawn) [Compound 195]: the DC50 is less than 100 nM.

With `COc1cc(-c2cn(C)c(=O)c(C)c2C)cc(Cl)c1C(=O)N1CCC(CCC2CCN(c3ccc(NC4CCC(=O)NC4=O)cc3F)CC2)CC1` (stereo not drawn) [Compound 243], the DC50 was less than 100 nM.

On to `COc1cc(-c2cn(C)c(=O)c3cnccc23)cc(OC)c1C(=O)N1Cc2cccc(CC3CCN(c4ccc(NC5CCC(=O)NC5=O)cc4F)CC3)c2C(F)(F)C1` (stereo not drawn) [Compound 234], for which the DC50 is less than 100 nM.

On to `Cc1c(-c2ccc(CN3CCC(C4CCN(c5ccc(NC6CCC(=O)NC6=O)nc5)CC4)CC3)c(OC(F)(F)F)c2)cn(C)c(=O)c1C` (stereo not drawn) [Compound 90], for which the DC50 was less than 100 nM.

Regarding `Cc1c(-c2ccc(CN3CCC(C4CCN(c5ccc(NC6CCC(=O)NC6=O)cc5F)CC4)CC3)c(OC(F)(F)F)c2)cn(C)c(=O)c1C` (stereo not drawn) [Compound 80], the 50% degradation concentration (DC50) was less than 100 nM.

For `COc1cc(-c2cn(C)c(=O)c3[nH]ncc23)cc(OC)c1CN1CCC(NC(=O)CN2CCC(c3ccc(NC4CCC(=O)NC4=O)cc3)CC2)CC1` (stereo not drawn) [Compound 6], the DC50 is less than 100 nM.

Take `COc1cc(-c2cn(C)c(=O)c3[nH]ncc23)cc(OC)c1CN1CCc2c(CN3CCC(c4ccc(NC5CCC(=O)NC5=O)cc4)CC3)cccc2C1` (stereo not drawn) [Compound 98]: the 50% degradation concentration (DC50) was less than 100 nM.

Consider `COc1cc(-c2cn(C)c(=O)c3[nH]ncc23)cc(F)c1CN1CCN(C(=O)Cc2c(F)cc(NC3CCC(=O)NC3=O)cc2F)CC1` (stereo not drawn) [Compound 164, 3-[3,5-difluoro-4-[2-[4-[[2-fluoro-6-methoxy-4-(6-methyl-7-oxo-1H-pyrazolo[3,4-c]pyridin-4-yl)phenyl]methyl]piperazin-1-yl]-2-oxo-ethyl]anilino]piperidine-2,6-dione], for which the DC50 lay in the range of 100 to 500 nM.

For the compound `CN(C(=O)N1CCC(c2ccc(NC3CCC(=O)NC3=O)cc2)CC1)C1CCN(Cc2ccc(-c3cn(C)c(=O)c4cnccc34)cc2OC(F)(F)F)CC1` (stereo not drawn) [Compound 122], the DC50 is less than 100 nM.

Staying with this test, now noted: Table 2; 293T.166 cells, 2.0 hours; class symbols; read-out: HiBiT-Degradation 293T.166 BRD9 2.0 hours (DC50).
For `COc1cc(-c2cn(C)c(=O)c(C)c2C)cnc1CN1CCC(N2CCN(c3ccc(NC4CCC(=O)NC4=O)cc3F)CC2)C(F)(F)C1` (stereo not drawn) [Compound 260, 3-[4-[4-[3,3-difluoro-1-[[3-methoxy-5-(1,4,5-trimethyl-6-oxo-3-pyridyl)-2-pyridyl]methyl]-4-piperidyl]piperazin-1-yl]-3-fluoro-anilino]piperidine-2,6-dione], the 50% degradation concentration (DC50) is less than 100 nM.

For the compound `[2H]C([2H])([2H])n1cc(-c2ccc(CN3CCC(C4CCN(c5ccc(NC6CCC(=O)NC6=O)cc5F)CC4)CC3)c(OC(F)(F)F)c2)c2ccncc2c1=O` (stereo not drawn) [Compound 252, 3-[3-fluoro-4-[4-[1-[[4-[1-oxo-2-(trideuteriomethyl)-2,7-naphthyridin-4-yl]-2-(trifluoromethoxy)phenyl]methyl]-4-piperidyl]-1-piperidyl]anilino]piperidine-2,6-dione], the DC50 was less than 100 nM.

`COc1cc(-c2cn(C)c(=O)c3cnccc23)cc(Cl)c1C(=O)N1CCC(F)(C2CCN(c3ccc(NC4CCC(=O)NC4=O)cc3F)CC2)CC1` (stereo not drawn) [Compound 275]: the DC50 is less than 100 nM.

Take `COc1cc(-c2cn(C)c(=O)c3ccccc23)cnc1CN1CCC(N2CCN(c3ccc(NC4CCC(=O)NC4=O)cc3F)CC2)C(F)(F)C1` (stereo not drawn) [Compound 261, 3-[4-[4-[3,3-difluoro-1-[[3-methoxy-5-(2-methyl-1-oxo-4-isoquinolyl)-2-pyridyl]methyl]-4-piperidyl]piperazin-1-yl]-3-fluoro-anilino]piperidine-2,6-dione]: the half-maximal degradation concentration (DC50) was less than 100 nM.
